In patent publication US6969714B2, “Imidazolo-5-YL-2-anilino-pyrimidines as agents for the inhibition of the cell proliferation” (AstraZeneca AB, priority 2000, dated 2005):

Target: T1, CDK2/Cyclin E (Homo sapiens, UniProt P24941)
T1 construct: The open reading frames of CDK2 and Cyclin E were isolated; made in house; host or cells: Sf21 (Spodoptera frugiperda) insect cells, baculovirus co-infection; the GST-Rb substrate was made in E. coli BL21 (DE3) pLysS
Experiment: in vitro kinase assay, Scintillation Proximity Assay, incorporation of [γ-33-P]-ATP into GST-Rb
Format: biochemical
Conditions: GST-Rb substrate, 0.2 μM ATP, 60 minutes at room temperature, read-out: CDK2 inhibitory activity IC50
Procedure: The compounds were tested in an in vitro kinase assay in 96 well format using Scintillation Proximity Assay (SPA—obtained from Amersham) for measuring incorporation of [γ-33-P]-Adenosine Triphosphate into a test substrate (GST-Retinoblastoma protein; GST-Rb). In each well was placed the compound to be tested (diluted in DMSO and water to correct concentrations) and in control wells either roscovitine as an inhibitor control or DMSO as a positive control. […]
The plates were sealed with Topseal-S plate sealers, left for two hours then spun at 2500 rpm, 1124×g., for 5 minutes. The plates were read on a Topcount for 30 seconds per well. […]
E. coli paste was resuspended in 10 ml/g of NETN buffer (50 mM Tris pH 7.5, 120 mM NaCl, 1 mM EDTA, 0.5% v/v NP-40, 1 mM PMSF, 1 ug/ml leupeptin, 1 ug/ml aprotinin and 1 ug/ml pepstatin) and sonicated for 2×45 seconds per 100 ml homogenate. […] The final product was analysed by Sodium Dodeca Sulfate (SDS) PAGE (Polyacrylamide gel) using 8-16% Tris-Glycine gels (Novex, San Diego, USA).
The open reading frames of CDK2 and Cyclin E were isolated by reverse transcriptase-PCR using HeLa cell and activated T cell mRNA as a template and cloned into the insect expression vector pVL1393 (obtained from Invitrogen 1995 catalogue number: V1392-20). […]

IC50: 146 nM
SMILES: Cn1cncc1-c1ccnc(Nc2ccccc2)n1 [Example 14, 2-Anilino-4-(1-methylimidazol-5-yl)pyrimidine]
